From the supplement of paper PMC12463676, “Small-molecule dissolution of stress granules by redox modulation benefits ALS models” (Nature Chemical Biology, 2025)

Assays:
[1] = compound: NC(=O)CCCCC1CCSS1 [lipoamide]; assay: thermal stability z-score vs DMSO; higher = more thermally stabilized by treatment; conditions: HeLa, lipoamide concentration 100 µM
Description: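 Cellular thermal proteome profiling in HeLa cells. Cells were treated with 100 µM lipoamide for 1 h, with or without 1 mM arsenate for a further 1 h, then heated to ten temperatures (37-66.3 °C), and soluble protein was quantified by TMT mass spectrometry relative to 0.1% DMSO controls. The thermal stability score (sum of log2 fold changes minus the abundance score) was transformed to a z-score; mean of n = 3 experiments.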

[2] = compound: O=[As]([O-])(O)O.[K+] [potassium arsenate]; assay: as above; conditions: HeLa; arsenate concentration 1 mM
Description: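 Cellular thermal proteome profiling in HeLa cells treated with 1 mM arsenate for 1 h (DMSO pretreatment), heated to ten temperatures (37-66.3 °C). Soluble protein was quantified by TMT mass spectrometry relative to DMSO controls; the thermal stability score was transformed to a z-score; mean of n = 3 experiments.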

[3] = arsenate co-treatment: 1 mM arsenate 1 h
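Note: each temperature applied for 3 min, abundance score taken as mean log2 fold change at the two lowest temperatures, z-score obtained by mean subtraction and division by SD.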

UniProt Q969T9, sequence (Q969T9 whole entry): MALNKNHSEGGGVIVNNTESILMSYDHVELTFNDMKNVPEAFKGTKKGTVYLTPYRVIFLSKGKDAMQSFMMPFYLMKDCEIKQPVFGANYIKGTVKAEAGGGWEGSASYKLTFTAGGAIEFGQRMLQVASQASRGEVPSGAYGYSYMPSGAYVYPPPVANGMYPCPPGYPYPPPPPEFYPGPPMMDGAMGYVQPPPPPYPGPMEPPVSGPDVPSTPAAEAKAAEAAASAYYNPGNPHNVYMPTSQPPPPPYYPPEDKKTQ
UniProt P08670, sequence (P08670 whole entry): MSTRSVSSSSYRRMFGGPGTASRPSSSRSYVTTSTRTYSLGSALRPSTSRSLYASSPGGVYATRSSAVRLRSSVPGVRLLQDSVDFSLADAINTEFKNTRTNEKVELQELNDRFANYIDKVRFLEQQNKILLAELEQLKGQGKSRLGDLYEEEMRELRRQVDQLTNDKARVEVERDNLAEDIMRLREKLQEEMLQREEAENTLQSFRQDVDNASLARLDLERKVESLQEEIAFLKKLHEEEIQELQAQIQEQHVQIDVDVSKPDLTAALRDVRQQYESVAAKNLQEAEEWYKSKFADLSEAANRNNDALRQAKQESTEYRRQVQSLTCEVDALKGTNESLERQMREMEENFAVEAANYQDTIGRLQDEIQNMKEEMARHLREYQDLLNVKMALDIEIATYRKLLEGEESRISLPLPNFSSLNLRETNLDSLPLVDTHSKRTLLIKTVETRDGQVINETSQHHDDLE
UniProt P49754, sequence (P49754 whole entry): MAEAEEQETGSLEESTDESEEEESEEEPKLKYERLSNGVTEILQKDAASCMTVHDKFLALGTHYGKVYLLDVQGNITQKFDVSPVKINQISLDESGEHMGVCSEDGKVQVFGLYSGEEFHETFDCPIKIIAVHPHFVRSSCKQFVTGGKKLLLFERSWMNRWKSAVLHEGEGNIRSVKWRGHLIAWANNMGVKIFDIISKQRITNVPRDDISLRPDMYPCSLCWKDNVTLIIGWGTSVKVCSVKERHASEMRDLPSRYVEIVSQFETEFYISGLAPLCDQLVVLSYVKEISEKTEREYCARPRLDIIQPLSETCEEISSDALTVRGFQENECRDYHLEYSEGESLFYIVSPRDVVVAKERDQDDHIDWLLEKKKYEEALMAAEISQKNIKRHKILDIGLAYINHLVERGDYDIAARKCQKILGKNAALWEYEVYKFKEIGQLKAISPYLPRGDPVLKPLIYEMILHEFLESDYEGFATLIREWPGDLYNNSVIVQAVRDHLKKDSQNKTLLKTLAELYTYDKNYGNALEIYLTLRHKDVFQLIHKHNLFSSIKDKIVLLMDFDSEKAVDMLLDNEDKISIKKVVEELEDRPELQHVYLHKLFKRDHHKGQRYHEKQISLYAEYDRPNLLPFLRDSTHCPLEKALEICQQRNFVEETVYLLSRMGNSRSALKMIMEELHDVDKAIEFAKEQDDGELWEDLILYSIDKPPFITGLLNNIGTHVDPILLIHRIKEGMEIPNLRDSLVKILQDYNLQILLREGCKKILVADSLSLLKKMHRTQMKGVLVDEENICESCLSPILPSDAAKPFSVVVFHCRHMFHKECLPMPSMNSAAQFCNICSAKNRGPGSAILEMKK
UniProt Q96SY0, sequence (Q96SY0 whole entry): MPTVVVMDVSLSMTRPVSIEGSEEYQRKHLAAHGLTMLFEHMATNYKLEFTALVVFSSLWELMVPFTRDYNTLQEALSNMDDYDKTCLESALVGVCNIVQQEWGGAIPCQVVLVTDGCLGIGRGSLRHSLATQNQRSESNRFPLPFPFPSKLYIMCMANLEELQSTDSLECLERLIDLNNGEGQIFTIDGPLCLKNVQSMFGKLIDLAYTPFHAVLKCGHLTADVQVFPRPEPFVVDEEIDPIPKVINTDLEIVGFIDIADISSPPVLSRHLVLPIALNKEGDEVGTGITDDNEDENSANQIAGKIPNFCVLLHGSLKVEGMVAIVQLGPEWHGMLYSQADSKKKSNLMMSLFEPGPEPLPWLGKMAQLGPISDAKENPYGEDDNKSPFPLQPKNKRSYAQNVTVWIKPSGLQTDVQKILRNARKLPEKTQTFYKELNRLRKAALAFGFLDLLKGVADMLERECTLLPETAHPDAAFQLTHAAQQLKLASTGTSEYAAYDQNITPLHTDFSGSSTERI
UniProt Q9UGM6, sequence (Q9UGM6 whole entry): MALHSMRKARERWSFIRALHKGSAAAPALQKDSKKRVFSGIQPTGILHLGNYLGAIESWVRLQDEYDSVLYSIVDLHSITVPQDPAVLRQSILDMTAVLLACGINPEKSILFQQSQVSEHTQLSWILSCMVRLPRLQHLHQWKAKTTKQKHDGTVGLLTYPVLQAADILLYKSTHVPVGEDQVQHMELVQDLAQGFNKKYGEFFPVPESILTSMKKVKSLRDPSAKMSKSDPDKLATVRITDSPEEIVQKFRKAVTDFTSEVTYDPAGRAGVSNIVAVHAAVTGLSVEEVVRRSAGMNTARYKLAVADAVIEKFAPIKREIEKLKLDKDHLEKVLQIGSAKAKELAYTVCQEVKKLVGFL
UniProt Q86VN1, sequence (Q86VN1 whole entry): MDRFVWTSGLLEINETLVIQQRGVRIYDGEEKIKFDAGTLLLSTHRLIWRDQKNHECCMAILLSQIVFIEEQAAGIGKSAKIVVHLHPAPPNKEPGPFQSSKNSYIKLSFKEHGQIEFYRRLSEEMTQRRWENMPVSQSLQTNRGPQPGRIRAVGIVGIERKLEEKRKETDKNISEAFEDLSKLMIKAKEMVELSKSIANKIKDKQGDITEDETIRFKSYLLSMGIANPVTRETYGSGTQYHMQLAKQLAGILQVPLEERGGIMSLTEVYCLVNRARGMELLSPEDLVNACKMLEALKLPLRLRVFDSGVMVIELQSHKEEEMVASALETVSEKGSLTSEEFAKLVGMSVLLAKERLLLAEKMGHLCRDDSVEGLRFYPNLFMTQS
UniProt Q9NP79, sequence (Q9NP79 whole entry): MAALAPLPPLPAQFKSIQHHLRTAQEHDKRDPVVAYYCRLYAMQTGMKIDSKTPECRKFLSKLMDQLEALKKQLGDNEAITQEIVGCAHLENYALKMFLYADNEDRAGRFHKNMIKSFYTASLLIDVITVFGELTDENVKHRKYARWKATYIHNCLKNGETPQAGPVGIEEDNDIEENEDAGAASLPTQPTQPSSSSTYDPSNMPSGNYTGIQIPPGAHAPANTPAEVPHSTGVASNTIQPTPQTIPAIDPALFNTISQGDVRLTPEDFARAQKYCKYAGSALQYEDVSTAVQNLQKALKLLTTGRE
UniProt Q9H270, sequence (Q9H270 whole entry): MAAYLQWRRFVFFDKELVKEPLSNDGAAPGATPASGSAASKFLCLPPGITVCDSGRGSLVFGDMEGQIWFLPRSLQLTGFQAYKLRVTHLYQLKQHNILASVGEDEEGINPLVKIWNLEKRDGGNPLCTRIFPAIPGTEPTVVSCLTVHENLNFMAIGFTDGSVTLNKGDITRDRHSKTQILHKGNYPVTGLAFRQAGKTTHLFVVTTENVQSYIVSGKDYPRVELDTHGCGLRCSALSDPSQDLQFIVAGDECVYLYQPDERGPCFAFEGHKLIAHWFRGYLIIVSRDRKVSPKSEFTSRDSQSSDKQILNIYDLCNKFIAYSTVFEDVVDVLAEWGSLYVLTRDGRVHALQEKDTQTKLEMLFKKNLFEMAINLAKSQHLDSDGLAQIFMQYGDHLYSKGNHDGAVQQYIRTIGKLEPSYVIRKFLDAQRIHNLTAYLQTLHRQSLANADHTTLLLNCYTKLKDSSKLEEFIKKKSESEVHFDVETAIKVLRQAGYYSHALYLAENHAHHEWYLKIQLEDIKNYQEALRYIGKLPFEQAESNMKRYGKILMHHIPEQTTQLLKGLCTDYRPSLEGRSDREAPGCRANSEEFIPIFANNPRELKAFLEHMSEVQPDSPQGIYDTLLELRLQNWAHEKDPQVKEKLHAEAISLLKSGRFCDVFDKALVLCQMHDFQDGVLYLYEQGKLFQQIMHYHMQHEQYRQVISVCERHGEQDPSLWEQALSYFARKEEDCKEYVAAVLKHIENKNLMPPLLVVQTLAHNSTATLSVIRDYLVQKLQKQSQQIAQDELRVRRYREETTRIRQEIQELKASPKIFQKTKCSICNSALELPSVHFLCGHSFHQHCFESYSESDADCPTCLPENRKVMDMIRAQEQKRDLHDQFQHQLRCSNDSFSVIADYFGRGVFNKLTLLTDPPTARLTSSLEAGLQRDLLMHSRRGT
UniProt P21796, sequence (P21796 whole entry): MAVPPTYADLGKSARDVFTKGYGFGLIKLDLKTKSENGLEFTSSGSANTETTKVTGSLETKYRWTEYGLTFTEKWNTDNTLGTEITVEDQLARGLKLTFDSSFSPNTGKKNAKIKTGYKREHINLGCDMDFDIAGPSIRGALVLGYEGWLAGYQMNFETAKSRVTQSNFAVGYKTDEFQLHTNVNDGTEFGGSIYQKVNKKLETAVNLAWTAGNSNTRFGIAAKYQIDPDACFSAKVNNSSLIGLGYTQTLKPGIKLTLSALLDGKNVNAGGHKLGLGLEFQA
UniProt Q9H9C1, sequence (Q9H9C1 whole entry): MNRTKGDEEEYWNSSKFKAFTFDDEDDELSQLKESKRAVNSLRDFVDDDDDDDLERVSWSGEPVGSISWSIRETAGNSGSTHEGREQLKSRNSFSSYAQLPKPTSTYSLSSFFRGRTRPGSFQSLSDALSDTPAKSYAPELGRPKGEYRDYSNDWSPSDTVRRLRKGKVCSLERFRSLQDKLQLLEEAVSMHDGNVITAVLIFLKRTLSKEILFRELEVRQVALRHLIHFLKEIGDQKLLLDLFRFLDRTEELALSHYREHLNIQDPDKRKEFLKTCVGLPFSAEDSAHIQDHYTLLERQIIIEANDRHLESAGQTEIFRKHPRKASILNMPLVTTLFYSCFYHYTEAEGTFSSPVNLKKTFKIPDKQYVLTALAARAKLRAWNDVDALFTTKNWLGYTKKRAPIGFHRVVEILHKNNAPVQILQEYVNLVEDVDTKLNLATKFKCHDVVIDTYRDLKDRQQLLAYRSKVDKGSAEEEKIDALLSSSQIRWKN
UniProt Q9BV40, sequence (Q9BV40 whole entry): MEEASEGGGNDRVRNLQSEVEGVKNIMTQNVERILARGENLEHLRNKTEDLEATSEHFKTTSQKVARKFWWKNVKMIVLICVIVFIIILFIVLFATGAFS

Target	thermal stability z-score [1, 3]	thermal stability z-score ([1]; arsenate co-treatment: none)	thermal stability z-score [2]
VAMP8 (UniProt Q9BV40)	1.3	1.28	0.587
VANGL1 (UniProt Q8TAA9)	0.696	0.817	-0.242
VAPA (UniProt Q9P0L0)	0.25	-0.0574	-1.14
VAPB (UniProt O95292)	-0.055	0.415	-0.178
VARS2 (UniProt Q5ST30)	-0.824	-0.273	0.279
VARS (UniProt P26640)	0.0159	-0.0112	0.373
VASP (UniProt P50552)	0.564	0.923	-0.33
VAT1 (UniProt Q99536)	0.819	0.762	1.37
VAV2 (UniProt P52735)	0.0635	0.172	0.835
VBP1 (UniProt P61758)	-0.615	-0.366	-0.72
VCL (UniProt P18206)	-0.353	-0.286	-2.02
VCP (UniProt P55072)	0.257	0.118	-0.172
VCPIP1 (UniProt Q96JH7)	-0.216	-0.156	-0.233
VDAC1 (UniProt P21796)	0.311	0.385	0.905
VDAC2 (UniProt P45880)	0.262	0.307	1.58
VDAC3 (UniProt Q9Y277)	0.0571	0.18	0.848
VEZT (UniProt Q9HBM0)	-0.758	-0.707	-0.349
VGLL4 (UniProt Q14135)	-0.0828	0.229	-1.46
VIM (UniProt P08670)	1.82	1.15	0.432
VIMP (UniProt Q9BQE4)	0.458	0.457	-0.948
VIPAS39 (UniProt Q9H9C1)	-0.0571	0.338	0.358
VKORC1 (UniProt Q9BQB6)	-1.71	-1.59	0.856
VKORC1L1 (UniProt Q8N0U8)	0.529	-0.318	0.544
VLDLR (UniProt P98155)	-0.517	-0.526	-0.86

Target	thermal stability z-score [1, 3]	thermal stability z-score ([1]; arsenate co-treatment: none)	thermal stability z-score [2]
VMP1 (UniProt Q96GC9)	-1.19	-1.69	-0.372
VPRBP (UniProt Q9Y4B6)	-0.368	-0.578	0.0129
VPS4A (UniProt Q9UN37)	-0.367	-0.472	-0.19
VPS4B (UniProt O75351)	0.854	0.498	0.314
VPS8 (UniProt Q8N3P4)	-0.0735	-0.283	-0.17
VPS11 (UniProt Q9H270)	-0.214	-0.578	0.734
VPS13A (UniProt Q96RL7)	1.04	0.949	0.945
VPS13B (UniProt Q7Z7G8)	0.291	0.491	-0.168
VPS13C (UniProt Q709C8)	0.038	-0.033	-0.213
VPS13D (UniProt Q5THJ4)	0.236	0.0716	-0.13
VPS16 (UniProt Q9H269)	-0.305	0.0437	1.02
VPS18 (UniProt Q9P253)	-0.401	-0.805	0.788
VPS25 (UniProt Q9BRG1)	-0.593	-0.349	0.0183
VPS26A (UniProt O75436)	0.178	-0.395	0.335
VPS26B (UniProt Q4G0F5)	0.123	-0.118	0.0841
VPS28 (UniProt Q9UK41)	0.513	0.681	0.492
VPS29 (UniProt Q9UBQ0)	-0.418	-0.247	-0.613
VPS33A (UniProt Q96AX1)	-0.0394	-0.0312	-0.027
VPS33B (UniProt Q9H267)	-0.333	0.0129	0.205
VPS35 (UniProt Q96QK1)	0.247	0.378	-0.541
VPS36 (UniProt Q86VN1)	-0.308	-0.0675	0.0802
VPS37A (UniProt Q8NEZ2)	0.0547	0.243	0.0736
VPS37B (UniProt Q9H9H4)	-0.0126	0.246	-0.0299
VPS39 (UniProt Q96JC1)	-0.937	-0.6	0.407

Target	thermal stability z-score [1, 3]	thermal stability z-score ([1]; arsenate co-treatment: none)	thermal stability z-score [2]
VPS41 (UniProt P49754)	-0.0442	-0.511	-0.161
VPS45 (UniProt Q9NRW7)	0.546	0.434	0.0668
VPS50 (UniProt Q96JG6)	-0.564	-0.541	0.134
VPS51 (UniProt Q9UID3)	-0.0785	0.169	-0.285
VPS52 (UniProt Q8N1B4)	-0.424	-0.105	-0.0774
VPS53 (UniProt Q5VIR6)	0.332	0.126	-0.0122
VPS72 (UniProt Q15906)	1.96	-0.00979	-2.49
VRK1 (UniProt Q99986)	0.263	0.423	-0.267
VRK2 (UniProt Q86Y07)	-0.383	-0.335	-0.6
VTA1 (UniProt Q9NP79)	0.703	0.296	-0.12
VTI1A (UniProt Q96AJ9)	0.054	0.419	-0.0839
VTI1B (UniProt Q9UEU0)	-0.0224	-0.376	-0.184
VWA5A (UniProt O00534)	-0.245	0.147	-0.235
VWA8 (UniProt A3KMH1)	-0.654	-0.345	-0.561
VWA9 (UniProt Q96SY0)	0.159	0.404	-0.114
WAC (UniProt Q9BTA9)	0.192	0.112	0.126
WAPL (UniProt Q7Z5K2)	0.0171	0.484	-0.434
WARS2 (UniProt Q9UGM6)	-0.731	-0.143	-0.284
WARS (UniProt P23381)	0.561	0.612	0.737
WASF1 (UniProt Q92558)	-0.121	-0.0242	-0.375
WASF2 (UniProt Q9Y6W5)	-0.14	-0.155	-0.206
WASL (UniProt O00401)	-0.128	0.327	-1.26
WBP2 (UniProt Q969T9)	0.689	0.465	-0.0559
WBP4 (UniProt O75554)	1.32	0.617	-2.19
